Measured values as given in PubChem BioAssay AID2060348 (Molecular Pharmacology Branch, DTP, NCI, 2025).
Where “and” joins values, the source holds several entries; their conditions need not be identical. Equal entries are not always repeated.

Tested on: 885724-159-R-J1-PDC spheroids viability
Experiment: Anticancer human tumor 885724-159-R-J1-PDC patient-derived pancreatic adenocarcinoma cell line growth inhibition [TAK]
Conditions: spheroids with HUVEC and MSC; for viability, T/C: stronger effect = lower value
Excerpt: Combinatorial screen of targeted agents with TAK-243 and ipatasertib in multi-cell type tumor spheroids
A high-throughput screen of multi-cell type tumor spheroids was designed to identify active combinations of targeted small molecules and TAK-243 or ipatasertib. Complex spheroids include a stromal component modeled by human endothelial cells (HUVEC) and fibroblasts modeled by human mesenchymal stem cells (MSCs). The concentration ranges selected for each drug and investigational agent were based upon clinically achievable concentrations if the clinical Cmax of the agent was known.
Compounds. The drugs and investigational agents: TAK-243 (785004), ipatasertib (767898), everolimus (733504), selumetinib (741078), bortezomib (756655), trametinib (758246), ixazomib (758254), vemurafenib (761431), dabrafenib (764134), sapanisertib (764658), alpelisib (765974), and copanlisib (816437), were obtained from the National Cancer Institute (NCI) Developmental Therapeutics Program Chemical Repository. The FDA-approved anticancer drug set is available from the NCI Developmental Therapeutics Program. […] The stock solutions were prepared in dimethyl sulfoxide (DMSO, Sigma-Aldrich, St. Louis, MO, cat. D2650) at 800-fold the tested concentration and stored at -70 degrees C prior to their use. All drugs and investigational agents were tested over a range starting from a high concentration at or near the clinical Cmax and decreasing in half-log increments. If the clinical Cmax for an agent had not been determined, the highest concentration tested was 10 microM.
NCI60 Cell Culture. NCI60 cell lines were obtained from the NCI Developmental Therapeutics Program Tumor Repository. For each lot of cells, the Repository performed Applied Biosystems AmpFLSTR Identifiler testing with PCR amplification to confirm consistency with the published Identifier STR profile for each cell line. Cells were kept in continuous culture for no more than 20 passages. The optimal seeding densities for each of the cell lines at each time point assessed were determined prior to performing the concentration response studies. Briefly, the NCI60 human tumor lines were grown as monolayers in RPMI 1640 medium supplemented with 10% FBS and 2 mmol/L L-glutamine.
An additional 2 lines were from the NCI60 cell line panel including melanomas, MALME-3M and SK-MEL-2. Pooled donor human umbilical vein endothelial cells (HUVEC, Lonza, cat. CC-2519) and human mesenchymal stem cells (hMSC, Lonza, cat. PT-2501) were purchased from Lonza (Walkersville, MD).
PDMR cell lines were grown in complete medium (DC medium): Dulbecco's modified Eagle's medium (DMEM)/F12 supplemented with 5% fetal bovine serum (FBS), 2 mM L-glutamine, 100 U/mL penicillin and 100 µg/ml streptomycin, 0.4 µg/ml hydrocortisone, 10 ng/ml epidermal growth factor (EGF) recombinant human protein, 24 µg/mL adenine, and 0.1 mg/mL primocin. During culture from frozen stock vials, PDMR cells were cultured in the same medium containing 10 µM Y-27632 (see Table 3). The PDCs were cultured in complete DMEM/F12 media without 10 microM Y-27632 dihydrochloride for at least two passages prior to the screen. The pooled donor HUVEC and hMSC were cultured in endothelial cell growth medium 2 (PromoCell, Heidelberg, Germany, cat. C-22011) and mesenchymal stem cell growth medium 2 (PromoCell, cat. C-28009), respectively. For all experiments, HUVEC and hMSC were used at passages </=5.
For the pre-screen, cell seeding densities were determined from a titration spanning the range from 5,000 to 313 cells per well. The mct-spheroids including 60% malignant cells, 25% HUVEC and 15% MSC dispensed as a mixture into U-bottom Ultra-Low Attachment 384-well plates (Corning, NY)
High-throughput Drug Combination Screening.
Prior to their inoculation into 384-well plates, malignant cells, HUVEC, and hMSC were removed from T flasks using TrypLE express (Thermo Fisher Scientific, cat. 12605036) and harvested by centrifugation for 5 min at 233 x g. […]

[1] = curve of first compound, second compound 0.3 µM
[2] = curve of first compound, second compound 0.949 µM
[3] = curve of first compound, second compound 3 µM
[4] = curve of first compound, second compound 9.49 µM
[5] = curve of first compound, second compound 30 µM
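Note: spheroids exposed to drugs for seven days.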
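Throughout, for viability, T/C: 100% = DMSO vehicle control viability.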

Question: Which results are given for COC1CC2CCC(C)C(O)(O2)C(=O)C(=O)N2CCCCC2C(=O)OC(C(C)CC2CCC(OCCO)C(OC)C2)CC(=O)C(C)C=C(C)C(O)C(OC)C(=O)C(C)CC(C)C=CC=CC=C1C (configuration not stated) + CC(C)NCC(C(=O)N1CCN(c2ncnc3c2C(C)CC3O)CC1)c1ccc(Cl)cc1?
Answer: IC50 [1]: > 100 nM; IC50 [2]: > 100 nM; IC50 [3]: 28.3 nM; IC50 [4]: < 0.316 nM; IC50 [5]: < 0.316 nM; viability, T/C (second compound 0.3 µM, first compound 0.000316 µM): 68.2%; viability, T/C (second compound 0.3 µM, first compound 0.001 µM): 62.3%; viability, T/C (second compound 0.3 µM, first compound 0.00316 µM): 62.3%; viability, T/C (second compound 0.3 µM, first compound 0.01 µM): 58.5%; viability, T/C (second compound 0.3 µM, first compound 0.0316 µM): 57.4%; viability, T/C (second compound 0.3 µM, first compound 0.1 µM): 56.3%; viability, T/C (second compound 0.949 µM, first compound 0.000316 µM): 63.1%; viability, T/C (second compound 0.949 µM, first compound 0.001 µM): 58.5%; viability, T/C (second compound 0.949 µM, first compound 0.00316 µM): 56.4%; viability, T/C (second compound 0.949 µM, first compound 0.01 µM): 59.3%; viability, T/C (second compound 0.949 µM, first compound 0.0316 µM): 58.4%; viability, T/C (second compound 0.949 µM, first compound 0.1 µM): 61.2%; viability, T/C (second compound 3 µM, first compound 0.000316 µM): 60.5%; viability, T/C (second compound 3 µM, first compound 0.001 µM): 60.4%; viability, T/C (second compound 3 µM, first compound 0.00316 µM): 53.3%; viability, T/C (second compound 3 µM, first compound 0.01 µM): 50.7%; viability, T/C (second compound 3 µM, first compound 0.0316 µM): 52.5%; viability, T/C (second compound 3 µM, first compound 0.1 µM): 46.2%; viability, T/C (second compound 9.49 µM, first compound 0.000316 µM): 48.2%; viability, T/C (second compound 9.49 µM, first compound 0.001 µM): 49.6%; viability, T/C (second compound 9.49 µM, first compound 0.00316 µM): 47.3%; viability, T/C (second compound 9.49 µM, first compound 0.01 µM): 41.4%; viability, T/C (second compound 9.49 µM, first compound 0.0316 µM): 42.5%; viability, T/C (second compound 9.49 µM, first compound 0.1 µM): 39.4%; viability, T/C (second compound 30 µM, first compound 0.000316 µM): 31.3%; viability, T/C (second compound 30 µM, first compound 0.001 µM): 27.5%; viability, T/C (second compound 30 µM, first compound 0.00316 µM): 27.5%; viability, T/C (second compound 30 µM, first compound 0.01 µM): 23.8%; viability, T/C (second compound 30 µM, first compound 0.0316 µM): 29.3%; viability, T/C (second compound 30 µM, first compound 0.1 µM): 25.5%

Question: For Cc1nc(NC(=O)N2CCCC2C(N)=O)sc1-c1ccnc(C(C)(C)C(F)(F)F)c1 (configuration not stated), which viability, T/C (compound 0.0316 µM) is on record?
Answer: 100% and 108%

Question: What about the viability, T/C (compound 0.1 µM) of the same compound?
Answer: 91.1% and 88.8%

Question: And the viability, T/C (compound 0.316 µM)?
Answer: 72.9% and 70.5%

Question: And the viability, T/C (compound 1 µM)?
Answer: 55.2% and 64.1%

Question: What about the viability, T/C (compound 3.16 µM) of the same compound?
Answer: 42.3% and 43.4%

Question: And the viability, T/C (compound 10 µM)?
Answer: 26.8% and 29.2%

Question: What about the IC50 (curve of compound) of the same compound?
Answer: 1590 nM and 1990 nM

Question: For CC(=O)Nc1cccc(-n2c(=O)n(C3CC3)c(=O)c3c(Nc4ccc(I)cc4F)n(C)c(=O)c(C)c32)c1 + CC(C)NCC(C(=O)N1CCN(c2ncnc3c2C(C)CC3O)CC1)c1ccc(Cl)cc1, which IC50 [1] is on record?
Answer: 0.357 nM

Question: And the IC50 [2]?
Answer: 0.148 nM

Question: And the IC50 [3]?
Answer: 0.118 nM

Question: What about the IC50 [4] of the same compound?
Answer: < 0.0949 nM

Question: What about the IC50 [5] of the same compound?
Answer: < 0.0949 nM

Question: What about the viability, T/C (second compound 0.3 µM, first compound 94.9 pM) of the same compound?
Answer: 62.1%

Question: And the viability, T/C (second compound 0.3 µM, first compound 0.0003 µM)?
Answer: 52.4%

Question: And the viability, T/C (second compound 0.3 µM, first compound 0.000949 µM)?
Answer: 39.4%

Question: And the viability, T/C (second compound 0.3 µM, first compound 0.003 µM)?
Answer: 29.7%

Question: What about the viability, T/C (second compound 0.3 µM, first compound 0.00949 µM) of the same compound?
Answer: 19.8%

Question: What about the viability, T/C (second compound 0.3 µM, first compound 0.03 µM) of the same compound?
Answer: 12.7%

Question: And the viability, T/C (second compound 0.949 µM, first compound 94.9 pM)?
Answer: 51.8%

Question: What about the viability, T/C (second compound 0.949 µM, first compound 0.0003 µM) of the same compound?
Answer: 46.9%

Question: What about the viability, T/C (second compound 0.949 µM, first compound 0.000949 µM) of the same compound?
Answer: 39.5%

Question: And the viability, T/C (second compound 0.949 µM, first compound 0.003 µM)?
Answer: 26.4%

Question: And the viability, T/C (second compound 0.949 µM, first compound 0.00949 µM)?
Answer: 16.5%

Question: And the viability, T/C (second compound 0.949 µM, first compound 0.03 µM)?
Answer: 9.03%

Question: And the viability, T/C (second compound 3 µM, first compound 94.9 pM)?
Answer: 50.9%

Question: What about the viability, T/C (second compound 3 µM, first compound 0.0003 µM) of the same compound?
Answer: 47%

Question: What about the viability, T/C (second compound 3 µM, first compound 0.000949 µM) of the same compound?
Answer: 37.3%

Question: And the viability, T/C (second compound 3 µM, first compound 0.003 µM)?
Answer: 27.7%

Question: And the viability, T/C (second compound 3 µM, first compound 0.00949 µM)?
Answer: 12.6%

Question: What about the viability, T/C (second compound 3 µM, first compound 0.03 µM) of the same compound?
Answer: 7.15%

Question: And the viability, T/C (second compound 9.49 µM, first compound 94.9 pM)?
Answer: 42.9%

Question: And the viability, T/C (second compound 9.49 µM, first compound 0.0003 µM)?
Answer: 39.1%

Question: What about the viability, T/C (second compound 9.49 µM, first compound 0.000949 µM) of the same compound?
Answer: 31.9%

Question: And the viability, T/C (second compound 9.49 µM, first compound 0.003 µM)?
Answer: 20.5%

Question: And the viability, T/C (second compound 9.49 µM, first compound 0.00949 µM)?
Answer: 9.73%

Question: And the viability, T/C (second compound 9.49 µM, first compound 0.03 µM)?
Answer: 4.47%

Question: And the viability, T/C (second compound 30 µM, first compound 94.9 pM)?
Answer: 29.2%

Question: And the viability, T/C (second compound 30 µM, first compound 0.0003 µM)?
Answer: 23.4%

Question: And the viability, T/C (second compound 30 µM, first compound 0.000949 µM)?
Answer: 15.1%

Question: And the viability, T/C (second compound 30 µM, first compound 0.003 µM)?
Answer: 6.5%

Question: And the viability, T/C (second compound 30 µM, first compound 0.00949 µM)?
Answer: 4.94%

Question: And the viability, T/C (second compound 30 µM, first compound 0.03 µM)?
Answer: 2.14%
